# Test system: Pseudomonas aeruginosa PAM1001
# Assay: checkerboard assay (broth microdilution): levofloxacin MIC in presence of efflux pump inhibitor
# Format: cell-based
# Protocol: For compounds labeled with the prefix ‘M’, potentiation effect is observed by the reduction of the minimum inhibitory concentration of levofloxacin in the presence of the experimental efflux pump inhibitor. The activity of efflux pump inhibitors (EPI) in combination with fluoroquinolones, such as levofloxacin, is assessed by the checkerboard assay (Antimicrobial Combinations. In Antibiotics in Laboratory Medicine, Ed. Victor Lorian, M.D., Fourth edition, 1996, pp 333-338) using broth microdilution method performed as recommended by the National Committee for Clinical Laboratory Standards (1997). Methods for Dilution of Antimicrobial Susceptibility Tests for Bacteria That Grow Aerobically—Fourth Edition; Approved Standard. NCCLS Document M7-A4, Vol 17 No.2). The test organism used is Pseudomonas aeruginosa PAM1001. […] The compounds tabulated below are representative of the described invention.
# In these assays, multiple dilutions of two drugs, namely the EPI and levofloxacin, are being tested, alone and in combination, at concentrations equal to, above and below their respective minimal inhibitory concentrations (MICs). In the case of EPI, most of these compounds are devoid of intrinsic antimicrobial activity and are tested up to the maximum concentration of 40 μg/mL. The MIC of levofloxacin against P. aeruginosa PAM1001 is 4 μg/mL.
# The EPI tested are readily soluble in water and stock solutions are prepared at a final concentration of 2 mg/mL. Stock solutions are further diluted, according to the needs of a particular assay, in Mueller Hinton Broth (MHB). Stock solution can be stored at −80° C. Quinolones are solubilized according to the instructions of the manufacturers, at a concentration of 1 mg/mL. They are then further diluted in MHB. Stock solution can be stored at −80° C.
# The checkerboard assay is performed in microtiter plates. Levofloxacin is diluted in the x axis, each column containing a single concentration of levofloxacin. The EPI is diluted in the y axis, each row containing an equal concentration of EPI. The result of these manipulations is that each well of the microtiter plate contains a unique combination of concentrations of the two agents. Each EPI are tested independently.
# The assay is performed in MHB with a final bacterial inoculum of 5×10^5 CFU/mL (from an early-log phase culture). Microtiter plates are incubated during 20 h at 35° C. and are read using a microtiter plate reader (Molecular Devices) at 650 nm as well as visual observation using a microtiterplate reading mirror.
compound,measurement,setting,value
N[C@H]1CN[C@H](C(=O)N[C@H](CCc2ccccc2)C(=O)Nc2cnc3ccccc3c2)C1 [Compound M7],"Levofloxacin MIC Against P. aerugiuosa PAM1001 in Presence of Efflux Pump Inhibitor (EPI), Minimum Inhibitory Concentration",EPI Conc. 0 μg/mL,4 µg/mL
same,"Levofloxacin MIC Against P. aerugiuosa PAM1001 in Presence of Efflux Pump Inhibitor (EPI), Minimum Inhibitory Concentration",EPI Conc. 0.625 μg/mL,4 µg/mL
same,"Levofloxacin MIC Against P. aerugiuosa PAM1001 in Presence of Efflux Pump Inhibitor (EPI), Minimum Inhibitory Concentration",EPI Conc. 1.25 μg/mL,4 µg/mL
same,"Levofloxacin MIC Against P. aerugiuosa PAM1001 in Presence of Efflux Pump Inhibitor (EPI), Minimum Inhibitory Concentration",EPI Conc. 2.5 μg/mL,4 µg/mL
same,"Levofloxacin MIC Against P. aerugiuosa PAM1001 in Presence of Efflux Pump Inhibitor (EPI), Minimum Inhibitory Concentration",EPI Conc. 5 μg/ mL,4 µg/mL
same,"Levofloxacin MIC Against P. aerugiuosa PAM1001 in Presence of Efflux Pump Inhibitor (EPI), Minimum Inhibitory Concentration",EPI Conc. 10 μg/mL,4 µg/mL
same,"Levofloxacin MIC Against P. aerugiuosa PAM1001 in Presence of Efflux Pump Inhibitor (EPI), Minimum Inhibitory Concentration",EPI Conc. 20 μg/mL,4 µg/mL
same,"Levofloxacin MIC Against P. aerugiuosa PAM1001 in Presence of Efflux Pump Inhibitor (EPI), Minimum Inhibitory Concentration",EPI Conc. 40 μg/mL,0.06 µg/mL
"NCC(=O)N[C@H]1CN[C@H](c2nc3ccc(Cc4ccccc4)cc3[nH]2)C1 [Compound M73, (2S,4R)-4-(2-Aminoacetamido)-2-(5-benzyl-2-benzmidazolyl)pyrrolidine]","Levofloxacin MIC Against P. aerugiuosa PAM1001 in Presence of Efflux Pump Inhibitor (EPI), Minimum Inhibitory Concentration",EPI Conc. 0 μg/mL,4 µg/mL
same,"Levofloxacin MIC Against P. aerugiuosa PAM1001 in Presence of Efflux Pump Inhibitor (EPI), Minimum Inhibitory Concentration",EPI Conc. 0.625 μg/mL,4 µg/mL
same,"Levofloxacin MIC Against P. aerugiuosa PAM1001 in Presence of Efflux Pump Inhibitor (EPI), Minimum Inhibitory Concentration",EPI Conc. 1.25 μg/mL,4 µg/mL
"NC[C@H]1CN[C@@H](C(=O)NCc2nc3ccc(Cc4ccccc4)cc3[nH]2)C1 [Compound M87, (2R,4S)-4-(Aminomethyl)-N-[(5-benzyl-2-benzimidazoiyl)methyl]-2-pyrrolidinecarboxamide]","Levofloxacin MIC Against P. aerugiuosa PAM1001 in Presence of Efflux Pump Inhibitor (EPI), Minimum Inhibitory Concentration",EPI Conc. 0 μg/mL,4 µg/mL
same,"Levofloxacin MIC Against P. aerugiuosa PAM1001 in Presence of Efflux Pump Inhibitor (EPI), Minimum Inhibitory Concentration",EPI Conc. 0.625 μg/mL,4 µg/mL
same,"Levofloxacin MIC Against P. aerugiuosa PAM1001 in Presence of Efflux Pump Inhibitor (EPI), Minimum Inhibitory Concentration",EPI Conc. 1.25 μg/mL,4 µg/mL
same,"Levofloxacin MIC Against P. aerugiuosa PAM1001 in Presence of Efflux Pump Inhibitor (EPI), Minimum Inhibitory Concentration",EPI Conc. 2.5 μg/mL,1 µg/mL
same,"Levofloxacin MIC Against P. aerugiuosa PAM1001 in Presence of Efflux Pump Inhibitor (EPI), Minimum Inhibitory Concentration",EPI Conc. 5 μg/ mL,0.125 µg/mL
same,"Levofloxacin MIC Against P. aerugiuosa PAM1001 in Presence of Efflux Pump Inhibitor (EPI), Minimum Inhibitory Concentration",EPI Conc. 10 μg/mL,0.06 µg/mL
same,"Levofloxacin MIC Against P. aerugiuosa PAM1001 in Presence of Efflux Pump Inhibitor (EPI), Minimum Inhibitory Concentration",EPI Conc. 20 μg/mL,0.03 µg/mL
"(2S,4R)-4-(Aminompropionamido)-N-[(1R)-3-phenyl-1-(3-quinolylcarbamolyl)propyl]-2-pyrrolidinecarboxamide [Compound M5]","Levofloxacin MIC Against P. aerugiuosa PAM1001 in Presence of Efflux Pump Inhibitor (EPI), Minimum Inhibitory Concentration",EPI Conc. 0 μg/mL,4 µg/mL
same,"Levofloxacin MIC Against P. aerugiuosa PAM1001 in Presence of Efflux Pump Inhibitor (EPI), Minimum Inhibitory Concentration",EPI Conc. 0.625 μg/mL,4 µg/mL
same,"Levofloxacin MIC Against P. aerugiuosa PAM1001 in Presence of Efflux Pump Inhibitor (EPI), Minimum Inhibitory Concentration",EPI Conc. 1.25 μg/mL,4 µg/mL
same,"Levofloxacin MIC Against P. aerugiuosa PAM1001 in Presence of Efflux Pump Inhibitor (EPI), Minimum Inhibitory Concentration",EPI Conc. 2.5 μg/mL,4 µg/mL
same,"Levofloxacin MIC Against P. aerugiuosa PAM1001 in Presence of Efflux Pump Inhibitor (EPI), Minimum Inhibitory Concentration",EPI Conc. 5 μg/ mL,2 µg/mL
same,"Levofloxacin MIC Against P. aerugiuosa PAM1001 in Presence of Efflux Pump Inhibitor (EPI), Minimum Inhibitory Concentration",EPI Conc. 10 μg/mL,2 µg/mL
same,"Levofloxacin MIC Against P. aerugiuosa PAM1001 in Presence of Efflux Pump Inhibitor (EPI), Minimum Inhibitory Concentration",EPI Conc. 20 μg/mL,0.50 µg/mL
same,"Levofloxacin MIC Against P. aerugiuosa PAM1001 in Presence of Efflux Pump Inhibitor (EPI), Minimum Inhibitory Concentration",EPI Conc. 40 μg/mL,0.008 µg/mL
"NC[C@@H]1CN[C@@H](C(=O)N[C@H](CCc2ccccc2)CNC(=O)c2cnc3ccccc3c2)C1 [Compound M103, (2R,4R)-4-(Aminomethyl)-N-[(1R)-3-phenyl-1-[(3-quinolylcarboxamido)methyl]propyl]-2-pyrrolidinecarboxamide]","Levofloxacin MIC Against P. aerugiuosa PAM1001 in Presence of Efflux Pump Inhibitor (EPI), Minimum Inhibitory Concentration",EPI Conc. 0 μg/mL,4 µg/mL
same,"Levofloxacin MIC Against P. aerugiuosa PAM1001 in Presence of Efflux Pump Inhibitor (EPI), Minimum Inhibitory Concentration",EPI Conc. 0.625 μg/mL,4 µg/mL
same,"Levofloxacin MIC Against P. aerugiuosa PAM1001 in Presence of Efflux Pump Inhibitor (EPI), Minimum Inhibitory Concentration",EPI Conc. 1.25 μg/mL,4 µg/mL
same,"Levofloxacin MIC Against P. aerugiuosa PAM1001 in Presence of Efflux Pump Inhibitor (EPI), Minimum Inhibitory Concentration",EPI Conc. 2.5 μg/mL,4 µg/mL
same,"Levofloxacin MIC Against P. aerugiuosa PAM1001 in Presence of Efflux Pump Inhibitor (EPI), Minimum Inhibitory Concentration",EPI Conc. 5 μg/ mL,2 µg/mL
same,"Levofloxacin MIC Against P. aerugiuosa PAM1001 in Presence of Efflux Pump Inhibitor (EPI), Minimum Inhibitory Concentration",EPI Conc. 10 μg/mL,1 µg/mL
same,"Levofloxacin MIC Against P. aerugiuosa PAM1001 in Presence of Efflux Pump Inhibitor (EPI), Minimum Inhibitory Concentration",EPI Conc. 20 μg/mL,0.03 µg/mL
same,"Levofloxacin MIC Against P. aerugiuosa PAM1001 in Presence of Efflux Pump Inhibitor (EPI), Minimum Inhibitory Concentration",EPI Conc. 40 μg/mL,0.015 µg/mL

# From patent US6399629B1, “Efflux pump inhibitors” (priority 1998, dated 2002)
